# Tests used:
# Format in all cases: functional, cell-based
# K562 = assay: Cytotoxicity against human K562 cells after 48 hrs by MTT assay; conditions: K562, 48 h
# U-937 = assay: Cytotoxicity against human U937 cells after 48 hrs by MTT assay; conditions: U-937, 48 h
# HL-60 = assay: Cytotoxicity against human HL60 cells after 48 hrs by MTT assay; conditions: HL-60, 48 h
# [1] = Cytotoxicity against human A375-S2 cells after 48 hrs by MTT assay; conditions: A375-S2, 48 h
# HT-1080 = assay: Cytotoxicity against human HT1080 cells after 48 hrs by MTT assay; conditions: HT-1080, 48 h
# HCT-116 = assay: Cytotoxicity against human HCT116 cells after 48 hrs by MTT assay; conditions: HCT-116, 48 h
# A549 = assay: Cytotoxicity against human A549 cells after 48 hrs by MTT assay; conditions: A549, 48 h
# HepG2 = assay: Cytotoxicity against human HepG2 cells after 48 hrs by MTT assay; conditions: HepG2, 48 h
# HeLa = assay: Cytotoxicity against human HeLa cells after 48 hrs by MTT assay
# MCF7 = assay: Cytotoxicity against human MCF7 cells after 48 hrs by MTT assay; conditions: MCF7, 48 h
SMILES,IC50 (K562) [µM],IC50 (U-937) [µM],IC50 (HL-60) [µM],IC50 [1] [µM],IC50 (HT-1080) [µM],IC50 (HCT-116) [µM],IC50 (A549) [µM],IC50 (HepG2) [µM],IC50 (HeLa) [µM],IC50 (MCF7) [µM]
C=C(C)[C@@]12O[C@@]3(c4ccccc4)O[C@@H]1[C@@H]1[C@@H]4O[C@]4(CO)[C@@H](O)[C@]4(O)C(=O)[C@@H](C)C[C@H]4[C@@]1(O3)[C@H](C)[C@H]2OC(=O)c1ccccc1,24.6,12.3,26,9.31,14.3,24.9,12.5,24.1,20.3,0.37
C=C(C)[C@]12C[C@@H](C)[C@@]34OC(c5ccccc5)(OC1[C@@H]3[C@@H]1O[C@]1(COC(=O)c1ccccc1)[C@@H](O)[C@@]1(O)[C@H]4C[C@H](C)[C@@H]1O)O2,20.2,18.1,30.9,3.62,< 0.1,28.1,23.4,29.9,20.2,25.3
C=C(C)[C@]12C[C@@H](C)[C@@]34OC(c5ccccc5)(O[C@@H]1[C@@H]3[C@H](O)[C@](O)(COC(=O)/C=C/C=C/CCCCC)[C@@H](O)[C@@]1(O)[C@H]4C[C@H](C)[C@@H]1O)O2,24.2,23.8,20.5,25.4,29.9,27.4,22.3,22.7,26.2,> 50
C=C(C)[C@]1(O)C[C@@H](C)[C@@]2(O)[C@H]([C@H]1OC(=O)c1ccccc1)[C@H](O)[C@](O)(COC(=O)/C=C/C=C/CCCCC)[C@@H](O)[C@@]1(O)[C@H]2C[C@H](C)[C@@H]1O,24.5,15.6,10.1,23.7,22.9,35.8,20.9,17.9,21.1,> 50
O=c1[nH]cc(F)c(=O)[nH]1 [FLUOROURACIL],23.6,23.9,10.1,6.67,35.6,27.8,44.1,40.3,7.34,11.5
C=C(C)[C@@]12O[C@@]3(/C=C/C=C/CCCCC)O[C@@H]1[C@@H]1[C@@H]4O[C@]4(CO)[C@@H](O)[C@]4(O)C(=O)C(C)=C[C@H]4[C@@]1(O3)[C@H](C)[C@H]2OC(=O)c1ccccc1 [GNIDILATIDIN],16.1,11.8,26.8,8.72,2.02,23,13.1,8.04,5.56,2.39
C=C(C)[C@@]12OC3(/C=C/C=C\CCCCC)O[C@@H]1[C@@H]1[C@@H]4O[C@]4(CO)[C@@H](O)[C@]4(O)C(=O)C(C)=C[C@H]4[C@@]1(O3)[C@H](C)[C@H]2OC(C)=O [ISOYUANHUADINE],17.5,17.4,17.7,21.5,14.9,32.3,24.1,30,0.64,23.4
C=C(C)[C@]12C[C@@H](C)[C@@]34OC(c5ccccc5)(O[C@@H]1[C@@H]3[C@@H]1O[C@]1(CO)[C@@H](O)[C@@]1(O)[C@H]4C[C@H](C)[C@@H]1O)O2 [ORTHOBENZOATE],42.3,> 50,> 50,47.2,24.5,49.9,> 50,48.9,31.7,12.4
C=C(C)[C@]12C[C@@H](C)[C@@]34OC5(CCCCCCC[C@H](C)[C@H]6[C@H](C)[C@H](OC(=O)c7ccccc7)[C@@](O)([C@H](O)[C@@]7(CO)O[C@H]7[C@H]3[C@H]1O5)[C@@H]64)O2 [PIMELEA FACTOR P2],25.2,16.7,17.9,25.7,13.2,19.6,17,19.1,18.3,> 50
C=C(C)[C@]12C[C@@H](C)[C@@]34O[C@](CCCCCCCCC)(O[C@@H]1[C@@H]3[C@@H]1O[C@]1(CO)[C@@H](O)[C@]1(O)C(=O)C(C)=C[C@H]14)O2 [SIMPLEXIN],> 50,> 50,> 50,10.7,< 0.1,> 50,27,38.8,21.7,25.4

# — ChEMBL document CHEMBL2375331, “Daphnane-type diterpenes with inhibitory activities against human cancer cell lines from Daphne genkwa” (Bioorg Med Chem Lett, 2013)
